We go through 37 compounds from patent US20050197336A1 (Miikana Therapeutics Corporation, priority 2004, published 2005).

Assay [1] has as its system Histone deacetylase (HDAC), HeLa cell nuclear extract. Briefly: In vitro fluorescent histone deacetylase assay (Biomol kit, HeLa cell nuclear extract). The assay is classed as biochemical. As to conditions: compound at 100 μM; HeLa cell nuclear extract as HDAC source; substrate 50 μM; 10 min at room temperature. In short, it runs like this: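 HeLa nuclear extract supplies mixed HDAC activity acting on fluorogenic substrate at 50 μM final, 10 min at room temperature before stopping. Compounds serially diluted in assay buffer, final DMSO ≤2%. Fluorescence read at ex 355/em 460 nm.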

Assay [2] has as its system MCF7 cells. As to the kind of experiment: Whole cell cytotoxicity assay: Sulforhodamine B. Conditions: Homo sapiens; compound at 100 μM; MCF7 cell growth; 48 hours with drug; SRB staining. Type of assay: cell-based, human. The essentials:
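MCF7 cells in DMEM with 10% FBS were seeded 24 h before compound, then exposed to nine concentrations for 48 h at 37° C. TCA-fixed cells stained with sulforhodamine B; absorbance at 570 nm, with a time-zero plate fixed at drug addition.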

SMILES strings stand for the structures.

`O=C(NO)c1cnc(N2CCN(S(=O)(=O)c3ccc(-c4ccc5c(c4)OCO5)cc3)CC2)s1` [Example 60, 2-(4-{[4-(1,3-benzodioxol-5-yl)phenyl]sulfonyl}piperazin-1-yl)-1,3-thiazole-5-carboxylic acid hydroxyamide]: in assay [1], the “% inhibition HDAC @ 100 μM” value is listed as 99%. For the same compound, the inhibition at 100 µM in assay [2] came to 92.1%.
In the same order, the values of `O=C(NO)c1cnc(N2CCN(S(=O)(=O)c3ccc(-c4cccc(F)c4)cc3)CC2)s1` [Example 61] are 95% and 92.2%.
On the same counts, the results for `O=C(NO)c1cnc(N2CCN(S(=O)(=O)c3ccc(-c4ccc(Cl)cc4)cc3)CC2)s1` [Example 62] are 98% and 75%.
For the compound `COc1ccc(-c2ccc(S(=O)(=O)N3CCN(c4ncc(C(=O)NO)s4)CC3)cc2)cc1` [Example 63], the “% inhibition HDAC @ 100 μM” value in assay [1] amounted to 98%. Also, testing at 100 µM in assay [2] gave an inhibition of 93.3%.
On the same counts, the results for `CC(C)(C)c1ccc(-c2ccc(S(=O)(=O)N3CCN(c4ncc(C(=O)NO)s4)CC3)cc2)cc1` [Example 64] are 48% and 87%.
In the same order, the values of `O=C(NO)c1cnc(N2CCN(S(=O)(=O)c3ccc(-c4cccs4)cc3)CC2)s1` [Example 65, 2-{4-[(4-thien-2-ylphenyl)sulfonyl]piperazin-1-yl}-1,3-thiazole-5-carboxylic acid hydroxamide] are 99% and 95%.
In the same order, the values of `CC(C)(C)OC(=O)n1cccc1-c1ccc(S(=O)(=O)N2CCN(c3ncc(C(=O)NO)s3)CC2)cc1` [Example 66] are 99% and 97%.
On to `CN(C)C(=O)c1ccc(-c2ccc(S(=O)(=O)N3CCN(c4ncc(C(=O)NO)s4)CC3)cc2)cc1` [Example 68, 2-[4-(4′-N,N-dimethylcarboxamido-1,1′-biphenylsulfonyl)piperazin-1-yl]-1,3-thiazole-5-carboxylic acid hydroxyamide], for which the “% inhibition HDAC @ 100 μM” value in assay [1] is reported as 99%. The compound further gave an inhibition at 100 µM in assay [2] of 84.7%.
Turning to `O=C(NO)c1cnc(N2CCN(S(=O)(=O)c3ccc(-c4ccncc4)cc3)CC2)s1` [Example 72, 2-{4-[4-(pyridin-4-yl)phenylsulfonyl]piperazin-1-yl}-1,3-thiazole-5-carboxylic acid hydroxyamide], the “% inhibition HDAC @ 100 μM” value in assay [1] is listed as 98%. Besides, testing at 100 µM in assay [2] gave an inhibition of 84.5%.
On the same counts, the results for `O=C(NO)c1cnc(N2CCN(S(=O)(=O)c3ccc(-c4cccc(CN5CCCCC5)c4)cc3)CC2)s1` [Example 73] are 100% and 96.7%.
On the same counts, the results for `CN(C)Cc1cccc(-c2ccc(S(=O)(=O)N3CCN(c4ncc(C(=O)NO)s4)CC3)cc2)c1.Cl` [Example 74] are 100% and 97.3%.
In the same order, the values of `Cl.O=C(NO)c1cnc(N2CCN(S(=O)(=O)c3ccc(-c4cccc(CN5CCCC5)c4)cc3)CC2)s1` [Example 75] are 100% and 98.6%.
Take `CC1CCN(Cc2cccc(-c3ccc(S(=O)(=O)N4CCN(c5ncc(C(=O)NO)s5)CC4)cc3)c2)CC1.Cl` [Example 76]: in assay [1], the “% inhibition HDAC @ 100 μM” value is on record as 99%. Moreover, in assay [2], the inhibition at 100 µM was found to be 98%.
On the same counts, the results for `Cl.O=C(NO)c1cnc(N2CCN(S(=O)(=O)c3ccc(-c4cccc(CN5CCCCCC5)c4)cc3)CC2)s1` [Example 77] are 100% and 98%.
On the same counts, the results for `CCN(CC)Cc1cccc(-c2ccc(S(=O)(=O)N3CCN(c4ncc(C(=O)NO)s4)CC3)cc2)c1.Cl` [Example 78] are 100% and 99%.
In the same order, the values of `C=CCN(C)Cc1cccc(-c2ccc(S(=O)(=O)N3CCN(c4ncc(C(=O)NO)s4)CC3)cc2)c1.Cl` [Example 79] are 99% and 98%.
With `CN(C)Cc1ccc(-c2ccc(S(=O)(=O)N3CCN(c4ncc(C(=O)NO)s4)CC3)cc2)cc1` [Example 80], in assay [1], the “% inhibition HDAC @ 100 μM” value is on record as 99%. This compound also registered an inhibition at 100 µM in assay [2] of 97.9%.
In the case of `CN(C)Cc1sccc1-c1ccc(S(=O)(=O)N2CCN(c3ncc(C(=O)NO)s3)CC2)cc1` [Example 81], in assay [1], the “% inhibition HDAC @ 100 μM” value is on record as 100%. The compound further gave an inhibition at 100 µM in assay [2] of 97.1%.
On the same counts, the results for `O=C(NO)c1cnc(N2CCN(S(=O)(=O)c3ccc(-c4ccsc4CN4CCCC4)cc3)CC2)s1` [Example 82] are 99% and 92.7%.
As for `CN1CCN(Cc2cccc(-c3ccc(S(=O)(=O)N4CCN(c5ncc(C(=O)NO)s5)CC4)cc3)c2)CC1` [Example 84], the “% inhibition HDAC @ 100 μM” value in assay [1] was determined as 100%. The compound also registered an inhibition at 100 µM in assay [2] of 96.7%.
On the same counts, the results for `CCN(C)Cc1cccc(-c2ccc(S(=O)(=O)N3CCN(c4ncc(C(=O)NO)s4)CC3)cc2)c1` [Example 86] are 99% and 97.8%.
Consider `CC(C)N(C)Cc1cccc(-c2ccc(S(=O)(=O)N3CCN(c4ncc(C(=O)NO)s4)CC3)cc2)c1` [Example 87, 2-{4-[(3′-[isopropyl(methyl)amino]methyl]-1,1′-biphenylsulfonyl]-piperazin-1-yl}-1,3-thiazole-5-carboxylic acid hydroxyamide], for which the “% inhibition HDAC @ 100 μM” value in assay [1] was 99%. The same compound displayed an inhibition at 100 µM in assay [2] of 97.7%.
In the same order, the values of `O=C(NO)c1cnc(N2CCN(S(=O)(=O)c3ccc(-c4ccc(CN5CCCC5)s4)cc3)CC2)s1` [Example 88] are 99% and 93.8%.
On the same counts, the results for `O=C(NO)c1cnc(N2CCN(S(=O)(=O)c3ccc(-c4sccc4CN4CCCC4)cc3)CC2)s1` [Example 89] are 99% and 98.3%.
On the same counts, the results for `O=C(NO)c1cnc(N2CCN(S(=O)(=O)c3ccc(-c4cccc(CN5CCCC5)c4)s3)CC2)s1` [Example 90, 2-(4-{5-[3-(pyrrolidin-1-ylmethyl)phenyl]thiophene-2-sulfonyl}piperazin-1-yl)-1,3-thiazole-5-carboxylic acid hydroxyamide] are 99% and 98%.
Take `O=C(NO)c1cnc(N2CCN(S(=O)(=O)c3ccc(-c4cncnc4)cc3)CC2)s1` [Example 91, 2-[4-{(4-pyrimidine)benzenesulfonyl}-piperazin-1-yl]-thiazole-5-carboxylic acid hydroxyamide]: the “% inhibition HDAC @ 100 μM” value in assay [1] is reported as 99%. This compound had an inhibition at 100 µM in assay [2] of 94.6%.
On the same counts, the results for `CC(=O)Nc1ccc(-c2ccc(S(=O)(=O)N3CCN(c4ncc(C(=O)NO)s4)CC3)cc2)cc1` [Example 92] are 100% and 88.8%.
In the same order, the values of `O=C(NO)c1cnc(N2CCN(S(=O)(=O)c3ccc(-c4cccnc4)cc3)CC2)s1` [Example 93, 2-[4-{(3-pyrido)benzenesulfonyl}-piperazin-1-yl]-thiazole-5-carboxylic acid hydroxyamide] are 100% and 92.7%.
Turning to `O=C(NO)c1cnc(N2CCN(S(=O)(=O)CCc3ccccc3)CC2)s1` [Example 94, 2-[4-(phenethylsulfonyl)-piperazin-1-yl]-thiazole-5-carboxylic acid hydroxyamide], the “% inhibition HDAC @ 100 μM” value in assay [1] is recorded as 98%. This compound had an inhibition at 100 µM in assay [2] of 90.6%.
In the same order, the values of `CN(C)Cc1ccc(S(=O)(=O)N2CCN(c3ncc(C(=O)NO)s3)CC2)cc1` [Example 95] are 98% and 96.8%.
On the same counts, the results for `CN(C)Cc1cccc(S(=O)(=O)N2CCN(c3ncc(C(=O)NO)s3)CC2)c1` [Example 97] are 99% and 83.9%.
On the same counts, the results for `O=C(NO)c1cnc(N2CCN(S(=O)(=O)c3cccc(CN4CCCC4)c3)CC2)s1` [Example 98] are 98% and 92.2%.
On to `COCc1cccc(S(=O)(=O)N2CCN(c3ncc(C(=O)NO)s3)CC2)c1` [Example 99, 2-[4-(3-methoxymethylbenzenesulfonyl)-piperazin-1-yl]-thiazole-5-carboxylic acid hydroxyamide], for which the “% inhibition HDAC @ 100 μM” value in assay [1] is reported as 99%. In addition, in assay [2], at 100 µM the inhibition was 96%.
In the same order, the values of `Cn1cnc(S(=O)(=O)N2CCN(c3ncc(C(=O)NO)s3)CC2)c1` [Example 102] are 99% and 84%.
On the same counts, the results for `COc1ccc(S(=O)(=O)N2CCN(c3ncc(C(=O)NO)s3)CC2)cc1` [Example 103, 2-[4-(4-Methoxybenzenesulfonyl)piperazin-1-yl]-thiazole-5-carboxylic acid hydroxyamide] are 100% and 97.5%.
As to `O=C(NO)c1cnc(N2CCN(S(=O)(=O)c3ccc(CN4CCCC4)cc3)CC2)s1` [Example 105], the “% inhibition HDAC @ 100 μM” value in assay [1] was found to be 99%. The compound also returned an inhibition at 100 µM in assay [2] of 93%.
With `O=C(NO)c1cnc(N2CCN(S(=O)(=O)c3ccc(CN4CCOCC4)cc3)CC2)s1` [Example 106], the “% inhibition HDAC @ 100 μM” value in assay [1] was determined as 99%. Further, the inhibition at 100 µM in assay [2] turned out to be 82.3%.
